{"source": "patent US20060234922A1", "about": "“Remedy for corneal failure” (priority 2002, published 2006)", "type_in_all_cases": "cell-based", "key": {"[1]": {"tested_on": "cultured rabbit trigeminal nerve cells", "assay": "Effect of somatostatin receptor agonist on axon extension of cultured rabbit trigeminal nerve cells (neurofilament absorbance at 492 nm, fluorescence microscopy)", "conditions": "48 hr culture; for absorbance indicating the neurofilament amount of the cells (492 nm): control group 0.798, n=3", "excerpt": "Effect of Somatostatin Receptor Agonist on Axon Extension of Cultured Rabbit Trigeminal Nerve Cell (In Vitro Test)\nJapanese White Rabbits (2-3 days old) purchased from KITAYAMA LABES Co., Ltd. were used.\nAs a somatostatin receptor agonist, which is a test substance, t-butyl 6-amino-2-(3-(1H-indol-3-yl)-2-((4-(2-oxo-2,3-dihydrobenzoimidazol-1-yl)piperidine-1-carbonyl)amino)propionylamino)hexanoate, which is an SSTR2 specific agonist (hereinafter to be referred to as compound 1), and 1-(3-(N-(5-bromopyridin-2-yl)-N-(3,4-dichlorobenzyl)amino)propyl)-3-(3-(1H-imidazol-4-yl)propyl)thiourea (hereinafter to be referred to as compound 2), which is an SSTR4 specific agonist, were used. The compound 1 was a compound of Example 4 and synthesized according to the method of Example 2 of JP-A-2001-519812 (WO98/44922). The compound 2 was synthesized according Example 15 of JP-A-2001-525793 (WO97/43278).\nRabbit trigeminal nerve cells were isolated by reference to the report of Chan et al. (Kuan Y. Chan and Richard H. Haschke. Exp. Eye Res. 41: 687-699, 1985). To be specific, under ether anesthesia, cardiac perfusion with saline was performed and trigeminal ganglia was removed. Using nerve dispersion solution (SUMITOMO BAKELITE Co., Ltd.), trigeminal ganglia was dispersed to prepare trigeminal nerve cells. For cell culture, Neurobasal medium (GIBCO) added with B27 Supplement (GIBCO; final concentration 2% v/v) and L-Glutamine (GIBCO; final concentration 1 mM) was used under the culture conditions of 5% CO2, 95% air, 100% humidity, 37° C., 48 hr. […]\nAfter the completion of 48 hr culture, the cells innoculated on a 96 well plate were fixed with 4% paraformaldehyde and the neurofilament of the cell was labeled with anti-neurofilament 200 antibody (Sigma) specifically recognizing a neurofilament constituting nerve cell body and neurite and HRP conjugated goat anti-mouse IgG antibody (Wako Pure Chemical Industries, Ltd.). […] After the completion of coloring, the absorbance at 492 nm was measured and the measured value was taken as the amount of the stained neurofilament and used as an index for neuritogenesis (Taniwaki T., et al. Dev. Brain Res. (1995) 88, 109-166). The cells plated on an 8 well culture slide were fixed with 4% paraformaldehyde, a sample fixed with an anti-neurofilament 200 antibody (Sigma) was stained, and fluorescence labeled with Alexa Fluor 568 conjugated secondary antibody (Molecular probes). The fluorescence labeled cells were observed under a fluorescence microscope and the cell images were imported into a computer."}, "[2]": {"tested_on": "cultured rabbit trigeminal nerve cells", "assay": "Effect of Octreotide on axon extension of cultured rabbit trigeminal nerve cells (anti-neurofilament 200 immunostaining, image analysis)", "conditions": "Octreotide 10 μM final concentration, 24 hr culture", "excerpt": "Effect of Octreotide on Axon Extension of Cultured Rabbit Trigeminal Nerve Cells (In Vitro Test)\n(§1) Japanese White Rabbits (2-3 days old) purchased from Fukusaki Rabbit Warren were used.\nOctreotide (SMS 201-995, American Peptide Company, Inc.) was used.\nThe cell culture: Trigeminal nerve cells were isolated by reference to the report of Chan et al. (Kuan Y. Chan and Richard H. Haschke. Exp. Eye Res. 41: 687-699, 1985). To be specific, under ether anesthesia, after cardiac perfusion of rabbit with saline, the trigeminal ganglia was removed, and dispersed in nerve dispersion solution (SUMITOMO BAKELITE Co., Ltd.). The cells were counted and innoculated in an 8 well culture slide (BECTON DICKINSON) coated with polylysine. The cell number was about 3×10^3 cells per well, and the culture conditions were 5% CO2, 95% air, 37° C. […] Immunostaining: At 24 hr from culture, the cells were fixed with 4% paraformaldehyde at room temperature for 2 hr, and nerve cell, axon and dendrite were fluorescence stained with anti-neurofilament 200 antibody (NF, Anti-Neurofilament 200, Sigma) specifically recognizing a neurofilament constituting the nerve cell and neurite. The images of the stained cells were imported into a computer from the fluorescence microscope, and the effect of Octreotide on the neurite formation and axon extension was evaluated using an image analysis soft (MacSCOP, MITANI CO.). […]"}, "[3]": {"tested_on": "cultured rabbit trigeminal nerve cells", "assay": "Nerve axon extension promoting action in cultured rabbit trigeminal nerve cells (phase contrast microscopy)", "conditions": "NGF 1 μg/mL final concentration, 48 hr culture, compared to non-addition group", "description": "Nerve Axon Extension Promoting Action in Cultured Rabbit Trigeminal Nerve Cells (In Vitro Experiment)\nas §1\nAs a test substance, somatostatin (manufactured by CALBIOCHEM, Lot B33795) and NGF (NGF-7S, manufactured by Sigma) were used. The test substance was dissolved in phosphate buffer (PBS) to 100 μM somatostatin, 20 μg/mL NGF-7S. The prepared reagents were preserved at −80° C. and dissolved before use.\nThe trigeminal nerve cell was isolated according to the report of Chan et al. (Kuan Y. Chan and Richard H. Haschke. Exp. Eye Res. 41: 687-699, 1985). To be specific, under ether anesthesia, after cardiac perfusion of rabbit with saline, the trigeminal ganglia was removed, trigeminal ganglia was dispersed using a nerve dispersion solution (SUMITOMO BAKELITE Co., Ltd.), and the cells were plated in a 24-well plate (SUMITOMO BAKELITE Co., Ltd.) coated with polylysine/laminin. The number of cells was about 3000 cells per well and the culture conditions were 5% CO2, 95% air at 37° C. […]\nThe effect on the formation of neurite and the axon extension from trigeminal nerve cell by somatostatin and NGF were morphologically evaluated by the observation using a phase contrast microscope."}}, "data": [{"molecule": "S=C(NCCCc1c[nH]cn1)NCCCN(Cc1ccc(Cl)c(Cl)c1)c1ccc(Br)cn1", "note": "[compound 2, 1-(3-(N-(5-bromopyridin-2-yl)-N-(3,4-dichlorobenzyl)amino)propyl)-3-(3-(1H-imidazol-4-yl)propyl)thiourea]", "values": [{"measurement": "neuritogenic cells compared with the control group (fluorescence microscopic images)", "setting": "[1]; final concentration 0.1 μM", "result": "increase in the neuritogenic cells"}, {"measurement": "absorbance indicating the neurofilament amount of the cells (492 nm)", "setting": "[1]; final concentration 0.1 μM", "result": 0.850}]}, {"molecule": "C[C@@H](O)[C@@H]1NC(=O)[C@H](CCCCN)NC(=O)[C@@H](Cc2c[nH]c3ccccc23)NC(=O)[C@H](Cc2ccccc2)NC(=O)[C@@H](NC(=O)[C@H](N)Cc2ccccc2)CSSC[C@@H](C(=O)N[C@H](CO)[C@@H](C)O)NC1=O", "note": "[Octreotide]", "values": [{"measurement": "neuritogenic cells compared to the control cell group (fluorescence microscopic images)", "setting": "[2]", "result": "neuritogenic cells increased"}, {"measurement": "proportion (%) of neuritogenic cell to the total cell number", "setting": "[2]; control group about 21%, n=3, p<0.05", "result": "about 43%"}]}, {"molecule": "CC(C)(C)OC(=O)C(CCCCN)NC(=O)C(Cc1c[nH]c2ccccc12)NC(=O)N1CCC(n2c(=O)[nH]c3ccccc32)CC1", "note": "(stereo not shown) [compound 1, t-butyl 6-amino-2-(3-(1H-indol-3-yl)-2-((4-(2-oxo-2,3-dihydrobenzoimidazol-1-yl)piperidine-1-carbonyl)amino)propionylamino)hexanoate]", "values": [{"measurement": "neuritogenic cells compared with the control group (fluorescence microscopic images)", "setting": "[1]; final concentration 1 μM", "result": "increase in the neuritogenic cells"}, {"measurement": "absorbance indicating the neurofilament amount of the cells (492 nm)", "setting": "[1]; final concentration 1 μM", "result": 0.876}]}, {"molecule": "NGF: nerve growth factor (NGF-7S, manufactured by Sigma) (protein, UniProt P01139 122-241, looked up, 7S complex) Beta-nerve growth factor: SSTHPVFHMGEFSVCDSVSVWVGDKTTATDIKGKEVTVLAEVNINNSVFRQYFFETKCRASNPVESGCRGIDSKHWNSYCTTTHTFVKALTTDEKQAAWRFIRIDTACVCVLSRKATRRG", "values": [{"measurement": "formation of neurite and axon extension from trigeminal nerve cell, morphological evaluation", "setting": "[3]", "result": "clear nerve cell axon extension-promoting action was observed"}]}]}
